What was measured:
[1] = molecular target: AChE from the erythrocytes (Homo sapiens (Human), UniProt P22303); test: Ellman's method, acetylcholinesterase inhibition; assay type: biochemical; details: human erythrocyte AChE, phosphate buffer pH 8.0 as reference
Procedure: (§1) The biological activity of the compounds of general formula (I) towards the cholinesterase inhibition was evaluated using Ellman's method (Ellman, G. L.; Courtney, K. D.; Anders, B.; Featherstone, R. M. Biochem. Pharmacol. 1961, 7, 88-95).
(§2) The inhibitor causes the enzyme activity drop which is dependent on the inhibitor concentration. […] The amount of the hydrolyzed ASCh/BSCh is measured indirectly, by quantification of the product of its reaction with DTNB (5,5′-dithio-bis-2-nitrobenzoic acid). Ellman's method relies therefore on the spectrophotometric quantification of product of the reaction between acylthiocholine and DTNB. IC50 value corresponds to the inhibitor concentration which causes the 50% decrease of the enzyme activity.
(§3) The enzymes are derived from human blood: AChE from the erythrocytes and BChE from the plasma. The phosphate buffer of pH 8.0 is used as the reference compound (lack of inhibition; enzyme activity—100%).

[2] = molecular target: BChE from the plasma (Homo sapiens (Human), UniProt P06276); test: Ellman's method, butyrylcholinesterase inhibition; assay type: biochemical; details: for IC50: human plasma BChE, Ellman's method, phosphate buffer pH 8.0 as reference; for Selectivity IC50(AChE)/IC50(BChE): ratio of IC50 for AChE to IC50 for BChE
Procedure: as §1, §2, §3

Chain of BChE from the plasma (P06276 29-602): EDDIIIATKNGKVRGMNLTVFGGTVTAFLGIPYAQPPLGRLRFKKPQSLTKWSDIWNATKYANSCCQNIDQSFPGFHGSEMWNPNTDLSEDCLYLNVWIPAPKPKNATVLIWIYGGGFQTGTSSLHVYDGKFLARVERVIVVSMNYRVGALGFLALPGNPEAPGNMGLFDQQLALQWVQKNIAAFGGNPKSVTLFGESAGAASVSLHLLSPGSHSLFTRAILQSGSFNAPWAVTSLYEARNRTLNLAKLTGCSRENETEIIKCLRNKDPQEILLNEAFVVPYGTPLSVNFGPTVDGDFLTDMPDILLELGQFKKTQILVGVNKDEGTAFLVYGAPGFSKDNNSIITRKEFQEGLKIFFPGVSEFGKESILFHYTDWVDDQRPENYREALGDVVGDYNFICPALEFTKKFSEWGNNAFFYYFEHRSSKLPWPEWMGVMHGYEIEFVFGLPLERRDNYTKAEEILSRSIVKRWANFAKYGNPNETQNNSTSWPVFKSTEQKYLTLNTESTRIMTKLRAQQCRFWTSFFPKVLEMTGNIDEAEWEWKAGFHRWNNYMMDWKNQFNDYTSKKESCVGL
Chain of AChE from the erythrocytes (P22303 32-574 with tags or gaps limits assumed): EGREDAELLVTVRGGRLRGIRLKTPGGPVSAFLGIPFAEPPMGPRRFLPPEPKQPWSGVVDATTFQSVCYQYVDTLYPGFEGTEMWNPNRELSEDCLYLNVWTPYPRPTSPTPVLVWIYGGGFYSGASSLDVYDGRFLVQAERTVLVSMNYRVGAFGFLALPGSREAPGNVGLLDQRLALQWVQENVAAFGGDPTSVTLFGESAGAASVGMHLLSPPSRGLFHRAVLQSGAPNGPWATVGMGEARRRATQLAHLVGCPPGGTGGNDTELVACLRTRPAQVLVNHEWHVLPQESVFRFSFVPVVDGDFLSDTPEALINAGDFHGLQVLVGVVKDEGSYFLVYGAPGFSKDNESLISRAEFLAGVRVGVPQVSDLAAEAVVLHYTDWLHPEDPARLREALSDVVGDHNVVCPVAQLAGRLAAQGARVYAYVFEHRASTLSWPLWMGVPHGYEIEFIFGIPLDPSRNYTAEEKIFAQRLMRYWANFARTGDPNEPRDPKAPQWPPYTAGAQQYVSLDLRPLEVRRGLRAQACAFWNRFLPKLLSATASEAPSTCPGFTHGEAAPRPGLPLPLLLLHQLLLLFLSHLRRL

| Structure (SMILES) | IC50 [1] | IC50 [2] | Selectivity IC50(AChE)/IC50(BChE) [2] |
| --- | --- | --- | --- |
| CC(=O)O[C@@]12CCN(C(C)=O)[C@@H]1N(C(C)=O)c1ccc(OC(=O)NCCCCCCNc3c4c(nc5ccccc35)CCCC4)cc12 (stereo in doubt) [Example 7, 1,8-diacetyl-5-({[6-(1,2,3,4-tetrahydroacridin-9-ylamino)hexyl]carbamoyl}oxy)-2,3,8,8a-tetrahydropyrrolo[2,3-b]indol-3a(1H)-yl acetate] | 36.8 ± 2.87 nM | 3.15 ± 0.83 nM | 11.7 |
| CC(=O)NCCc1c[nH]c2ccc(OC(=O)NCCCCCCCNc3c4c(nc5ccccc35)CCCC4)cc12 [Example 1, 3-[2-(acetylamino)ethyl]-1H-indol-5-yl[7-(1,2,3,4-tetrahydroacridin-9-ylamino)heptyl]carbamate] | 33.8 ± 2.74 nM | 0.25 ± 0.02 nM | 135.1 |
| CC(=O)NCCc1c[nH]c2ccc(OC(=O)NCCCCCCNc3c4c(nc5ccccc35)CCCC4)cc12 [Example 3, 3-[2-(acetylamino)ethyl]-1H-indol-5-yl[6-(1,2,3,4-tetrahydroacridin-9-ylamino)hexyl]carbamate] | 178 ± 16.3 nM | 2.04 ± 0.22 nM | 87.4 |
| CC(=O)NCCc1c[nH]c2ccc(OC(=O)NCCCCCCCNc3c4c(nc5cc(Cl)ccc35)CCCC4)cc12 [Example 4, 3-[2-(acetylamino)ethyl]-1H-indol-5-yl{7-[(6-chloro-1,2,3,4-tetrahydroacridin-9-yl)amino]heptyl}carbamate] | – | – | 20.3 |
| CC(=O)NCCc1c[nH]c2ccc(OC(=O)NCCNc3c4c(nc5cc(Cl)ccc35)CCCC4)cc12 [Example 5, 3-[2-(acetylamino)ethyl]-1H-indol-5-yl{2-[(6-chloro-1,2,3,4-tetrahydroacridin-9-yl)amino]ethyl}carbamate] | – | – | 0.6 |
| CC(=O)NCCc1c[nH]c2ccc(OC(=O)NCCCNc3c4c(nc5ccccc35)CCCC4)cc12 [Example 8, 3-[2-(acetylamino)ethyl]-1H-indol-5-yl[3-(1,2,3,4-tetrahydroacridin-9-ylamino)propyl]carbamate] | 270 ± 19.4 nM | 58.2 ± 9.62 nM | 4.6 |
| CC(=O)NCCc1c[nH]c2ccc(OC(=O)NCCCCNc3c4c(nc5ccccc35)CCCC4)cc12 [Example 9, 3-[2-(acetylamino)ethyl]-1H-indol-5-yl[4-(1,2,3,4-tetrahydroacridin-9-ylamino)butyl]carbamate] | 378 ± 42.4 nM | 15.5 ± 2.84 nM | 24.4 |
| CC(=O)NCCc1c[nH]c2ccc(OC(=O)NCCCCCNc3c4c(nc5ccccc35)CCCC4)cc12 [Example 10, 3-[2-(acetylamino)ethyl]-1H-indol-5-yl[5-(1,2,3,4-tetrahydroacridin-9-ylamino)pentyl]carbamate] | 186 ± 11.2 nM | 2.07 ± 0.5 nM | 90.1 |
| CC(=O)NCCc1c[nH]c2ccc(OC(=O)NCCCCCCCCNc3c4c(nc5ccccc35)CCCC4)cc12 [Example 11, 3-[2-(acetylamino)ethyl]-1H-indol-5-yl[8-(1,2,3,4-tetrahydroacridin-9-ylamino)octyl]carbamate] | 4.61 ± 0.32 nM | 0.25 ± 0.03 nM | 18.4 |
| CC(=O)NCCc1c[nH]c2ccc(OC(=O)NCCCCCCCNc3c4c(nc5ccc(Cl)cc35)CCCC4)cc12 [Example 12, 3-[2-(acetylamino)ethyl]-1H-indol-5-yl{7-[(7-chloro-1,2,3,4-tetrahydroacridin-9-yl)amino]heptyl}carbamate] | – | – | 45.3 |
| CC(=O)NCCc1c[nH]c2ccc(OC(=O)NCCNc3c4c(nc5ccc(Cl)cc35)CCCC4)cc12 [Example 13, 3-[2-(acetylamino)ethyl]-1H-indol-5-yl{2-[(7-chloro-1,2,3,4-tetrahydroacridin-9-yl)amino]ethyl}carbamate] | – | – | 400.1 |
| CC(=O)NCCc1c[nH]c2ccc(OC(=O)NCCCCCCCCCCNc3c4c(nc5ccccc35)CCCC4)cc12 [Example 14, 3-[2-(acetylamino)ethyl]-1H-indol-5-yl[10-(1,2,3,4-tetrahydroacridin-9-ylamino)decyl]carbamate] | 1.18 ± 0.12 nM | 0.28 ± 0.04 nM | 4.2 |
| CC(=O)NCCc1c[nH]c2ccc(OC(=O)NCCCCCCCCCCCCNc3c4c(nc5ccccc35)CCCC4)cc12 [Example 15, 3-[2-(acetylamino)ethyl]-1H-indol-5-yl[12-(1,2,3,4-tetrahydroacridin-9-ylamino)dodecyl]carbamate] | 3.8 ± 0.16 nM | 0.24 ± 0.08 nM | 15.8 |
| CC(=O)NCCc1c[nH]c2ccc(OC(=O)NCCCCCCCCCCNc3c4c(nc5ccc(Cl)cc35)CCCC4)cc12 [Example 16, 3-[2-(acetylamino)ethyl]-1H-indol-5-yl{10-[(7-chloro-1,2,3,4-tetrahydroacridin-9-yl)amino]decyl}carbamate] | 1.43 ± 0.02 nM | 1.64 ± 0.14 nM | 0.9 |
| CC(=O)NCCc1c[nH]c2ccc(OC(=O)NCCCCCCCCCCCCNc3c4c(nc5ccc(Cl)cc35)CCCC4)cc12 [Example 17, 3-[2-(acetylamino)ethyl]-1H-indol-5-yl{12-[(7-chloro-1,2,3,4-tetrahydroacridin-9-yl)amino]dodecyl}carbamate] | 7 ± 0.72 nM | 0.78 ± 0.16 nM | 9 |
| CC(=O)NCCc1c[nH]c2ccc(OC(=O)NCCCCCCCCCCNc3c4c(nc5cc(Cl)ccc35)CCCC4)cc12 [Example 18, 3-[2-(acetylamino)ethyl]-1H-indol-5-yl{10-[(6-chloro-1,2,3,4-tetrahydroacridin-9-yl)amino]decyl}carbamate] | – | – | 6.7 |
| CC(=O)NCCc1c[nH]c2ccc(OC(=O)NCCCCCCCCCCCCNc3c4c(nc5cc(Cl)ccc35)CCCC4)cc12 [Example 19, 3-[2-(acetylamino)ethyl]-1H-indol-5-yl{12-[(6-chloro-1,2,3,4-tetrahydroacridin-9-yl)amino]dodecyl}carbamate] | – | – | 19.5 |

Reference: patent US8841453B2, “Hybrid cholinesterase inhibitors” (priority 2011, dated 2014)
